Results published in US8785453B2, “Arylpiperazine-containing purine derivatives and uses thereof” (Green Cross Corporation, priority 2009, dated 2014).
pIC50: −log10 of the molar value. Like-named read-outs stand apart in the source and are kept apart here.

Key:
mice [1] = test: Anti-depressants activity in forced swimming test; assay type: in vivo; conditions: 60 min before testing
Procedure: Each mouse was placed in a 25 cm glass cylinder (10 cm diameter) containing 15 cm of water maintained at 22±1, and was forced to swim for 10 min. 24 hours later, the mouse was replaced into the cylinder and the total duration of immobility was recorded during the last 5 min of the 6-min testing period. Mice are judged immobile when they float in an upright position and make only small movements to keep their head above water. Test drugs were suspended in 3% Tween 80 solution, and administered orally (po) 60 min before the testing.

[2] = target: T1, human recombinant serotonin 5-HT2A receptor (Homo sapiens, UniProt P28223); test: Binding affinity for serotonin 5-HT2A receptor ([3H]Ketanserin)
T1 construct: purchased PerkinElmer Life and Analytical Sciences, USA; host or cells: CHO-K1 cells
T1 sequence (P28223 whole entry): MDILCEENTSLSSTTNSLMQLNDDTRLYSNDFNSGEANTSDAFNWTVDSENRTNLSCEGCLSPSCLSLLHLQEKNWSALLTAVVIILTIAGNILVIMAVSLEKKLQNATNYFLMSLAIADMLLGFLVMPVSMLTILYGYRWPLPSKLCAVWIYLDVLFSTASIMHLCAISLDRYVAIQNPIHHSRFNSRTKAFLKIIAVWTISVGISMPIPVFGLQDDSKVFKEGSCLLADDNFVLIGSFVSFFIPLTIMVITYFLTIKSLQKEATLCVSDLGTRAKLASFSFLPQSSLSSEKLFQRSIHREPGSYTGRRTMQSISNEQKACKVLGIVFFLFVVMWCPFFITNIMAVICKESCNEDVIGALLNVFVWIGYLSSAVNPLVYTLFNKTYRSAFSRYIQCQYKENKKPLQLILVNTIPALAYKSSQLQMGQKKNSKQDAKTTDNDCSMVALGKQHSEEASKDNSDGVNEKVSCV
Procedure: (§1) Receptor binding affinities of the compounds for serotonin receptors were measured by the method described in the literature (see [Park W K et al., Pharmacol Biochem Behav., 82(2), 361-372 (2005)].
For serotonin 5-HT2A binding, an aliquot of human recombinant serotonin 5-HT2A receptor (PerkinElmer Life and Analytical Sciences, USA) expressed in CHO-K1 cells (5 μg/well) and 1 nM [^3H]Ketanserin (PerkinElmer) were used in the presence of mianserin (20 μM) as a nonspecific. The reaction mixture was incubated for 60 min […] 50 mM Tris-HCl (pH 7.4) buffer containing 4 mM CaCl2 and 0.1% ascorbic acid, and harvested through filtermate A glass fiber filter (Wallac, Finland) presoaked in 0.5% polyethyleneimine (PEI) by microbeta filtermate-96 harvester (PerkinElmer) to terminate the reaction, and then washed with ice cold 50 mM Tris-HCl buffer solution (pH 7.4). The filter was then covered with MeltiLex, sealed in a sample bag, dried in an oven. The radioactivity retained in the filter was finally counted using MicroBeta Plus (Wallac).
(§2) The binding affinity (IC50) of a compound for the receptor was calculated by computerized nonlinear regression analysis (GraphPad Prism Program, San Diego, USA) using 7-8 varied concentrations of the compound run in duplicate tubes.

[3] = target: T2, human serotonin transporter (Homo sapiens, UniProt P31645); test: Binding affinity for serotonin transporter ([3H]Imipramine)
T2 construct: purchased PerkinElmer; host or cells: HEK-293 cells
T2 sequence (P31645 whole entry): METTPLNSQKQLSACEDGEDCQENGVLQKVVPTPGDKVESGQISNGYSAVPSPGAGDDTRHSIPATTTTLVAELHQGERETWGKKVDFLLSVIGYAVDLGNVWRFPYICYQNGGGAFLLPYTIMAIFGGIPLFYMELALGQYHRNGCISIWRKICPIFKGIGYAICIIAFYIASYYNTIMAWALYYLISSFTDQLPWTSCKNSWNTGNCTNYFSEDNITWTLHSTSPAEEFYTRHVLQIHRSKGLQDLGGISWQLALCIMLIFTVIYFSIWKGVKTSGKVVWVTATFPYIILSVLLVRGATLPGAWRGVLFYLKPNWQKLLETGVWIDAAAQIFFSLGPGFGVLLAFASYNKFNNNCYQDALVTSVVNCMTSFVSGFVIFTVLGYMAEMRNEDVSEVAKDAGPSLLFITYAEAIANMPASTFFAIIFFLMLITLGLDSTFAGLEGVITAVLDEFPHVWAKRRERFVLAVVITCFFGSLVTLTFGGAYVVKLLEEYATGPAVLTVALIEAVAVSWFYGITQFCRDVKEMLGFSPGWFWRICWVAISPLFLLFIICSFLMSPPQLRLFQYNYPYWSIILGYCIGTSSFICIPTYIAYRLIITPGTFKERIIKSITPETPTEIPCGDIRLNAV
Procedure: For serotonin transporter binding assays, a reaction mixture with a final volume of 0.25 ml was prepared by mixing a test compound, human serotonin transporter membrane expressed in HEK-293 cells (PerkinElmer, 5 μg/well), [^3H] Imipramine (PerkinElmer, 2 nM) and 50 mM Tris-HCl (pH 7.4) buffer containing 120 mM NaCl and 5 mM KCl. The reaction mixture was incubated for 30 min at 27, and harvested through filtermate A glass fiber filter presoaked in 0.5% PEI with ice cold 50 mM Tris-HCl buffer (pH 7.4) containing 0.9% NaCl.

[4] = target: T3, human recombinant 5-HT2C receptor (Homo sapiens, UniProt P28335); test: Binding affinity for serotonin 5-HT2C receptor ([3H]Mesulergine)
T3 construct: purchased PerkinElmer
T3 sequence (P28335 33-458): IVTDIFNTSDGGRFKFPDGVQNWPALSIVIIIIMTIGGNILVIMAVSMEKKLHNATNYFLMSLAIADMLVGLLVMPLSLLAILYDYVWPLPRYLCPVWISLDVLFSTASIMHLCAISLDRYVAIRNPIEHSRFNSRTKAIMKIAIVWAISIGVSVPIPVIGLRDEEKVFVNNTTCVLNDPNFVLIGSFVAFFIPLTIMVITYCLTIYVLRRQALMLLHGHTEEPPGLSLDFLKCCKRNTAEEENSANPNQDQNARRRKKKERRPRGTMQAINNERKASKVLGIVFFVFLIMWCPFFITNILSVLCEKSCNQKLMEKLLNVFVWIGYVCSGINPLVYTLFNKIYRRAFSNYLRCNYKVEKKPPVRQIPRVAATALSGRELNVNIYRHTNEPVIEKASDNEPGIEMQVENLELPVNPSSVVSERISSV
Procedure: as §1, §2
For serotonin 5-HT2C binding, frozen membranes from stable CHO-K1 cell line expressing the human recombinant 5-HT2C receptor (PerkinElmer, 4 μg/well), [^3H]Mesulergine (Amersham, 1.3 nM) and test compounds were added into 50 mM Tris-HCl (pH 7.4) buffer containing 0.1% ascorbic acid and 4 mM CaCl2. Nonspecific binding was determined using 100 μM mianserin. The incubations were performed for 60 min at 27, and these were terminated by rapid filtration through filtermate A glass fiber filter presoaked in 0.5% PEI.

mice [5] = test: Synergy effect of the inventive compound combined with conventional anti-depressants in forced swimming test; assay type: in vivo; conditions: for anti-immobility effect in FST, anti-depressant alone: 25 mg/kg p.o.
Procedure: Each drug or vehicle was suspended in 3% Tween 80 solution and administered orally (p.o.) 60 min before forced swimming test.

[6] = CHO-K1 cells, 1 nM [3H]Ketanserin, read-out: binding affinity (IC50) 5-HT2A
[7] = HEK-293 membrane, 2 nM [3H]Imipramine, read-out: binding affinity Serotonin Transporter
[8] = CHO-K1 membranes, 1.3 nM [3H]Mesulergine, read-out: binding affinity (IC50) 5-HT2C

`Cc1cccc(N2CCN(CCCCNc3ncnc4c3nc(-c3ccccc3)n4-c3ccccc3)CC2)c1C` [Example 68, N-(4-(4-(2,3-dimethylphenyl)piperazin-1-yl)butyl)-8,9-diphenyl-9H-purine-6-amine] was tested, and the “Immobility in forced swimming test” value (mice [1]; 25 mg/kg po) was 78.66 ± 11.33%, the “Immobility in forced swimming test” value (mice [1]; 50 mg/kg po) was 72.11 ± 7.63% and the pIC50 [2, 6] was 8.62. The pIC50 [3, 7] was 6.84, the pIC50 [4, 8] was 8.33 and the “efficacy in forced swimming test, compound alone” value (mice [5]; 12.5 mg/kg or 25 mg/kg p.o.) was “do not demonstrate efficacy on animal model”.

With `COc1ccc(C(CN(C)C)C2(O)CCCCC2)cc1` (centres unmarked) [Effexor] the “anti-immobility effect in FST, anti-depressant alone” value (mice [5]) was “did not improve the anti-immobility effect”.

For `CNCCC(Oc1ccc(C(F)(F)F)cc1)c1ccccc1` (centres unmarked) [Prozac], the “anti-immobility effect in FST, anti-depressant alone” value (mice [5]) was “did not improve the anti-immobility effect”.

In the case of `CCc1nc2c(NCCN3CCN(c4cccc(C)c4C)CC3)ncnc2n1-c1ccc(SC)cc1.Cl` [Example 87, N-(2-(4-(2,3-dimethylphenyl)piperazin-1-yl)ethyl)-8-ethyl-9-(4-(methylthio)phenyl)-9H-purine-6-amine hydrochloride], the “Immobility in forced swimming test” value (mice [1]; 25 mg/kg po) was 88.26 ± 6.05%, the pIC50 [2, 6] was 8.03 and the pIC50 [3, 7] was 6.87. It also gave a pIC50 [4, 8] of 7.00.

For `Cc1cccc(N2CCN(CCCNc3ncnc4c3nc(-c3cccs3)n4-c3ccccc3)CC2)c1C.Cl` [Example 92, N-(3-(4-(2,3-dimethylphenyl)piperazin-1-yl)propyl)-9-phenyl-8-(thiophen-2-yl)-9H-purine-6-amine hydrochloride], the “Immobility in forced swimming test” value (mice [1]; 25 mg/kg po) was 85.86 ± 8.90%, the pIC50 [2, 6] was 7.77 and the pIC50 [3, 7] was 7.41. The pIC50 [4, 8] was 6.52.

For `Cc1cccc(N2CCN(CCCNc3ncnc4c3nc(C)n4C)CC2)c1C` [Example 28, N-(3-(4-(2,3-dimethylphenyl)piperazin-1-yl)propyl)-8,9-dimethyl-9H-purine-6-amine], the “Immobility in forced swimming test” value (mice [1]; 25 mg/kg po) was 87.65 ± 7.08%, the pIC50 [2, 6] was 7.19 and the pIC50 [3, 7] was 7.07. The pIC50 [4, 8] was 6.37.

With `Cc1cccc(N2CCN(CCCNc3ncnc4c3nc(-c3ccccc3)n4-c3ccccc3)CC2)c1C` [Example 2, N-(3-(4-(2,3-dimethylphenyl)piperazin-1-yl)propyl)-8,9-diphenyl-9H-purine-6-amine] the “Immobility in forced swimming test” value (mice [1]; 25 mg/kg po) was 58.34 ± 11.05%, the “Immobility in forced swimming test” value (mice [1]; 50 mg/kg po) was 47.13 ± 10.41% and the pIC50 [2, 6] was 7.49. For the same molecule, the pIC50 [3, 7] was 7.12 and the pIC50 [4, 8] was 6.79.

In the case of `Cc1cccc(N2CCN(CC(O)CNc3ncnc4c3ncn4-c3ccc4c(c3)OCCO4)CC2)c1C` (centres unmarked) [Example 42, 1-(9-(2,3-dihydrobenzo[b][1,4]dioxin-6-yl)-9H-purin-6-ylamino)-3-(4-(2,3-dimethylphenyl)piperazin-1-yl)propan-2-ol], the “Immobility in forced swimming test” value (mice [1]; 25 mg/kg po) was 86.65 ± 6.40%, the pIC50 [2, 6] was 7.40 and the pIC50 [3, 7] was 8.10. The pIC50 [4, 8] was 6.25.

In the case of `Cc1cccc(N2CCN(CCCNc3ncnc4c3nc(C)n4-c3ccc(C(F)(F)F)cc3)CC2)c1C` [Example 76, N-(3-(4-(2,3-dimethylphenyl)piperazin-1-yl)propyl)-8-methyl-9-(4-(trifluoromethyl)phenyl)-9H-purine-6-amine], the “Immobility in forced swimming test” value (mice [1]; 25 mg/kg po) was 79.98 ± 7.42%, the “Immobility in forced swimming test” value (mice [1]; 50 mg/kg po) was 90.13 ± 4.29% and the pIC50 [2, 6] was 7.37. For the same molecule, the pIC50 [3, 7] was 6.89 and the pIC50 [4, 8] was 6.34.

For `Cc1cccc(N2CCN(CC(O)CNc3ncnc4c3nc(C)n4-c3ccc4c(c3)OCCO4)CC2)c1C` (centres unmarked) [Example 44, 1-(9-(2,3-dihydrobenzo[b][1,4]dioxin-6-yl)-8-methyl-9H-purin-6-ylamino)-3-(4-(2,3-dimethylphenyl)piperazin-1-yl)propan-2-ol], the “Immobility in forced swimming test” value (mice [1]; 25 mg/kg po) was 80.41 ± 7.04%, the pIC50 [2, 6] was 7.27 and the pIC50 [3, 7] was 7.19. The pIC50 [4, 8] was 6.29.

With `Cc1cccc(N2CCN(CCCNc3ncnc4c3nc(C)n4-c3ccc(F)cc3)CC2)c1C` [Example 49, N-(3-(4-(2,3-dimethylphenyl)piperazin-1-yl)propyl)-9-(4-fluorophenyl)-8-methyl-9H-purine-6-amine] the “Immobility in forced swimming test” value (mice [1]; 25 mg/kg po) was 81.07 ± 7.11%, the pIC50 [2, 6] was 7.33 and the pIC50 [3, 7] was 7.21. It also gave a pIC50 [4, 8] of 6.44.

In the case of `Cc1cccc(N2CCN(CCCNc3ncnc4c3ncn4-c3ccccc3)CC2)c1C` [Example 13, N-(3-(4-(2,3-dimethylphenyl)piperazin-1-yl)propyl)-9-phenyl-9H-purine-6-amine], the “Immobility in forced swimming test” value (mice [1]; 25 mg/kg po) was 89.81 ± 7.14%, the pIC50 [2, 6] was 7.25 and the pIC50 [3, 7] was 7.46. For the same molecule, the pIC50 [4, 8] was 6.53.

For `Cc1cccc(N2CCN(CCCNc3ncnc4c3nc(C)n4-c3ccc4c(c3)OCCO4)CC2)c1C` [Example 43, 9-(2,3-dihydrobenzo[b][1,4]dioxin-6-yl)-N-(3-(4-(2,3-dimethylphenyl)piperazin-1-yl)propyl)-8-methyl-9H-purine-6-amine], the “Immobility in forced swimming test” value (mice [1]; 25 mg/kg po) was 81.26 ± 11.85%, the pIC50 [2, 6] was 7.85 and the pIC50 [3, 7] was 7.80. It also gave a pIC50 [4, 8] of 6.93.

For `Clc1cccc(N2CCN(CCCNc3ncnc4c3nc(-c3ccccc3)n4-c3ccccc3)CC2)c1Cl` [Example 1, N-(3-(4-(2,3-dichlorophenyl)piperazin-1-yl)propyl)-8,9-diphenyl-9H-purine-6-amine], the “Immobility in forced swimming test” value (mice [1]; 50 mg/kg po) was 41.79%, the pIC50 [2] was 7.85 and the pIC50 [3] was 7.19. It also gave a pIC50 [4] of 7.07.

`Cc1cccc(N2CCN(CCCNc3ncnc4c3ncn4-c3ccc4c(c3)OCO4)CC2)c1C` [Example 34, 9-(benzo[d][1,3]dioxol-5-yl)-N-(3-(4-(2,3-dimethylphenyl)piperazin-1-yl)propyl)-9H-purine-6-amine] was tested, and the “Immobility in forced swimming test” value (mice [1]; 25 mg/kg po) was 76.92 ± 10.04%, the “Immobility in forced swimming test” value (mice [1]; 50 mg/kg po) was 96.83 ± 11.02% and the pIC50 [2, 6] was 7.27. For the same molecule, the pIC50 [3, 7] was 8.22 and the pIC50 [4, 8] was 6.64.

With `CSc1ccc(-n2c(C)nc3c(NCCCN4CCN(c5cccc(C)c5C)CC4)ncnc32)cc1.Cl` [Example 86, N-(3-(4-(2,3-dimethylphenyl)piperazin-1-yl)propyl)-8-methyl-9-(4-(methylthio)phenyl)-9H-purine-6-amine hydrochloride] the “Immobility in forced swimming test” value (mice [1]; 25 mg/kg po) was 66.53 ± 8.35%, the pIC50 [2, 6] was 7.60 and the pIC50 [3, 7] was 7.19. It also gave a pIC50 [4, 8] of 6.42.

With `CCCc1nc2c(NCCN3CCN(c4cccc(C)c4C)CC3)ncnc2n1-c1ccccc1` [Example 12, N-(2-(4-(2,3-dimethylphenyl)piperazin-1-yl)ethyl)-9-phenyl-8-propyl-9H-purine-6-amine] the “Immobility in forced swimming test” value (mice [1]; 25 mg/kg po) was 94.69 ± 12.46%, the pIC50 [2, 6] was 7.89 and the pIC50 [3, 7] was 7.03. It also gave a pIC50 [4, 8] of 6.83.

`CCc1nc2c(NCCCN3CCN(c4cccc(C)c4C)CC3)ncnc2n1-c1ccc(F)cc1` [Example 51, N-(3-(4-(2,3-dimethylphenyl)piperazin-1-yl)propyl)-8-ethyl-9-(4-fluorophenyl)-9H-purine-6-amine] was tested, and the “Immobility in forced swimming test” value (mice [1]; 25 mg/kg po) was 99.44 ± 10.28%, the pIC50 [2, 6] was 7.18 and the pIC50 [3, 7] was 7.72. For the same molecule, the pIC50 [4, 8] was 6.37.
